The results in this text go back to patent publication US20110038885A1, “CHEMOKINE ANALOGS” (priority 2007, published 2011).

By EC50 is commonly meant the concentration needed to bring the measured effect to its halfway point.

Numbered stars: 1 amine (or outer) side, 2 acyl side, 3 side chain; on linkers, the order of the positions; unused ones are H or OH. Bridge positions count the residues as written; N and C are the ends. Square brackets hold non-standard residues; d marks the D form. Peptide text beside a SMILES is read from it. * marks the point of attachment. Glutaryl = O=C(CCCC(=O)[*:2])[*:1]; Lauroyl = CCCCCCCCCCCC(=O)*; Isobutyryl = CC(C)C(=O)*; Orn = NCCC[C@H](N)C(=O)O; Dap = NC[C@H](N)C(=O)O; Aoc = NCCCCCCCC(=O)O; GABA = NCCCC(=O)O; βAla = NCCC(=O)O

This assay concerns MCP-1. As to the kind of experiment: In vitro chemotaxis (trans-well migration) v MCP-1. Format: cell-based, human. As for the experimental part:
To determine whether an agent inhibits a chemokine-induced activity, such as macrophage recruitment, varying amounts of the agent are mixed with cells in the presence of a known chemoattractant. For example, a range of known concentrations of an agent, e.g., a chemokine peptide, is incubated with a defined number (e.g., 10^4-10^6) of human THP-1 monocyte cells in individual wells of the top compartment of a trans-well plate. Chemokine, at a concentration known to cause significant migration of THP-1 cells in the trans-well migration assay, is placed in the lower compartment of a trans-well plate. Cells are then incubated at 37° C. for a period sufficient to allow migration, e.g., 4 hours. After incubation, the cells are gently removed from the top of the filter with a pipette, 20 μl of 20 mM EDTA in simple PBS is added into each top well, and incubated for 20 minutes at 4° C. The filter is carefully flushed with media using a gentle flow, and removed. A standard curve consisting of a two-fold dilution series of THP-1 cells (in 29 μl) is placed to accurately quantify the number of cells that have migrated. Migrated cells are stained with 3 μl of MTT stock dye solution which is added directly into each well (5 mg/ml in RPMI-1640 without phenol red) (Sigma Chemical Co., St. Louis, Mo., USA) and incubated at 37° C. for 4 hours. The media is carefully aspirated from each well, and the converted dye is solubilized by 20 μl of DMSO. Absorbance of converted dye is measured at a wavelength of 595 nm using an ELISA plate reader. The number of migrated cells in each well is then determined by interpolation of the standard curve (see also Imai et al., J. Biol. Chem., 272:15036, 1997). Any method suitable for counting cells can be used, for example, counting with a hemocytometer, incubation of the cells with MTT (see above), or FACS analysis. A negative control assay is also performed, using TGFβ or another non-chemokine chemoattractant (e.g., IL1β or TNFα). To assess whether the agent is cytotoxic, the same concentrations of agent are incubated with THP-1 cells. Agents which 1) are not cytotoxic at levels which inhibit migration, 2) are ineffective at inhibiting the negative control-induced migration, and 3) reduce or inhibit chemokine-induced THP-1 migration, are agents which fall within the scope of the invention.
`CC[C@H](C)[C@H](NC(=O)[C@H](Cc1c[nH]c2ccccc12)NC(=O)[C@H](CCCCN)NC(=O)[C@H](CCCN)NC(=O)C(C)C)C(=O)N[C@@H](CCC(N)=O)C(=O)N[C@@H](CC(=O)O)C(N)=O` [Example 202, Isobutyryl-Orn-Lys-Trp-Ile-Gln-Asp-NH2] (Isobutyryl-[Orn]KWIQD-NH2): the EC50 stood at 8 nM.

In the case of `CC[C@H](C)[C@@H]1NC(=O)[C@H](Cc2c[nH]c3ccccc23)NC(=O)[C@H](CCCCN)NC(=O)CCCCCCCNC(=O)CC[C@@H](C(N)=O)NC(=O)[C@H](CCC(N)=O)NC1=O` [Example 96, c(Aoc-Lys-Trp-Ile-Gln-Glu)-NH2] ([Aoc]KWIQE-NH2; lactam N-6), the midpoint of the response, the EC50, lay at 4 nM.

The molecule `CC[C@H](C)[C@@H]1NC(=O)[C@H](Cc2c[nH]c3ccccc23)NC(=O)[C@H](CCCCN)NC(=O)[C@@H](NC(C)=O)CCCCNC(=O)C[C@@H](C(N)=O)NC(=O)[C@H](CCC(N)=O)NC1=O` [Example 120, Ac-c(Lys-Lys-Trp-Ile-Gln-Asp)-NH2] (Ac-KKWIQD-NH2; lactam 1-6) had an EC50 of 8 nM.

As for `CC[C@H](C)[C@@H]1NC(=O)[C@H](Cc2c[nH]c3ccccc23)NC(=O)[C@H](CCCCN)NC(=O)CCCC(=O)NCCC[C@@H](C(N)=O)NC(=O)[C@H](CCC(N)=O)NC1=O` [Example 8, c(Glutaryl-Lys-Trp-Ile-Gln-Orn)-NH2] (KWIQ[Orn]-NH2; linker N-5 via Glutaryl), a half-maximal effect (EC50) was put at 5 nM.

With `CCCCCCCCCCCC(=O)N[C@H]1CSSC[C@@H](C(N)=O)NC(=O)[C@H](CCC(N)=O)NC(=O)[C@H]([C@@H](C)CC)NC(=O)[C@H](Cc2c[nH]c3ccccc23)NC(=O)[C@H](CCCCN)NC1=O` [Example 84, Dodecanoyl-c(Cys-Lys-Trp-Ile-Gln-Cys)-NH2] (Lauroyl-CKWIQC-NH2; disulfide 1-6), the EC50 is 15 nM.

The molecule `CC[C@H](C)[C@@H]1NC(=O)[C@H](Cc2c[nH]c3ccccc23)NC(=O)[C@H](CCCCN)NC(=O)[C@@H](NC(=O)C(C)C)CC(=O)NC[C@@H](C(N)=O)NC(=O)[C@H](CCC(N)=O)NC1=O` [Example 6, Isobutyryl-c(Asp-Lys-Trp-Ile-Gln-Dap)-NH2] (Isobutyryl-DKWIQ[Dap]-NH2; lactam 1-6) yielded an EC50 of 5 nM.

`CC[C@H](C)[C@@H]1NC(=O)[C@H](Cc2c[nH]c3ccccc23)NC(=O)[C@H](CCCCN)NC(=O)CNC(=O)CC[C@@H](C(N)=O)NC(=O)[C@H](CCC(N)=O)NC1=O` [Example 88, c(Gly-Lys-Trp-Ile-Gln-Glu)-NH2] (GKWIQE-NH2; lactam N-6) gave an EC50 of 9 nM.

Regarding `CC[C@H](C)[C@@H]1NC(=O)[C@H](Cc2c[nH]c3ccccc23)NC(=O)[C@H](CCCCN)NC(=O)[C@@H](NC(=O)C(C)C)CCCCNC(=O)C[C@@H](C(N)=O)NC(=O)[C@H](CCC(N)=O)NC1=O` [Example 106, Isobutyryl-c(Lys-Lys-Trp-Ile-Gln-Asp)-NH2] (Isobutyryl-KKWIQD-NH2; lactam 1-6), the EC50 was 8 nM.

Molecule `CC[C@@H](C)[C@H]1NC(=O)[C@@H](CCC(N)=O)NC(=O)CCCNC(=O)C[C@H](C(N)=O)NC(=O)[C@@H](CCCCN)NC(=O)[C@@H](Cc2c[nH]c3ccccc23)NC1=O` [Example 196, c(Gaba-D-Gln-D-Ile-D-Trp-D-Lys-D-Asp)-NH2] ([GABA][dQ][dI][dW][dK][dD]-NH2; lactam N-6) yielded a 50% effective concentration (EC50) of 50 nM.

As for `CC[C@@H](C)[C@H]1NC(=O)[C@@H](CCC(N)=O)NC(=O)CCNC(=O)C[C@H](C(N)=O)NC(=O)[C@@H](CCCCN)NC(=O)[C@@H](Cc2c[nH]c3ccccc23)NC1=O` [Example 195, c((βAla-D-Gln-D-Ile-D-Trp-D-Lys-D-Asp)-NH2] ([βAla][dQ][dI][dW][dK][dD]-NH2; lactam N-6), the response was half-maximal at 45 nM (EC50).

As to `CC[C@H](C)[C@@H]1NC(=O)[C@H](Cc2c[nH]c3ccccc23)NC(=O)[C@H](CCCCN)NC(=O)[C@@H](NC(=O)C(C)C)CC(=O)NCCC[C@@H](C(N)=O)NC(=O)[C@H](CCC(N)=O)NC1=O` [Example 99, Isobutyryl-c(Asp-Lys-Trp-Ile-Gln-Orn)-NH2] (Isobutyryl-DKWIQ[Orn]-NH2; lactam 1-6), the EC50 is 50 nM.
